The values that follow come from ChEMBL document CHEMBL3045801, “Synthesis of 1, 2, 4-Triazolo[1, 5-a]-1, 3, 5-triazine Derivatives for Phytotoxic Activity” (J Pestic Sci, 1995).

Test [1] relates to Scenedesmus acutus. The experiment in a line: Phytotoxicity against Scenedesmus acutus assessed as inhibition of chlorophyll content after 16 hr by spectrophotometry relative to untreated control. It is filed as functional.
Test [2] concerns Scenedesmus acutus. The experiment in a line: Growth inhibition of Scenedesmus acutus assessed as packed cell volume per ml of algal culture volume after 16 hr (reference value: 3.8 ul pcv/ml). The test is classed as functional.

Regarding `O=C1C2=C(CCCC2)C(=O)N1c1ccc(Br)cc1F`, in test [1], the “inhibition (INH)” value came to 79%. The Activity in test [2] is recorded as 2.1 uL/ml.

`CNc1ncnc2nc(-c3ccc(Cl)cc3)nn12`: in test [1], the “inhibition (INH)” value was 8.07%. In test [2], the Activity is 3.7 uL/ml.

Regarding `Nc1ncnc2nc(-c3ccc(Cl)cc3F)nn12`, the “inhibition (INH)” value in test [1] worked out at 32.61%. The Activity in test [2] is reported as 3.1 uL/ml.

In the case of `NC1=NC=NC2=NC(c3ccc(Cl)cc3F)NN12` (stereo not given), the “inhibition (INH)” value in test [1] came to 10.39%. The Activity in test [2] worked out at 3.4 uL/ml.

With `Nc1ncnc2nc(-c3ccc(Cl)cc3)nn12`, the “inhibition (INH)” value in test [1] was 25.55%. For the same compound, the Activity in test [2] is 3.2 uL/ml.

As to `NC1=NC=NC2=NC(c3ccc(Cl)cc3)NN12` (stereo not given), in test [1], the “inhibition (INH)” value came out at 4.81%. Besides, the Activity in test [2] stood at 3.6 uL/ml.

With `CCN/C(=N\C=N\C#N)N/N=C(\C)c1ccccc1`, in test [1], the “inhibition (INH)” value amounted to 27.93%. Also, the Activity in test [2] turned out to be 3.6 uL/ml.

For the compound `CN/C(=N\C=N\C#N)N/N=C/c1ccccc1`, the “inhibition (INH)” value in test [1] is on record as 32.97%. The Activity in test [2] is given as 3.3 uL/ml.

Regarding `CN/C(=N\C=N\C#N)N/N=C(\C)c1ccccc1`, the “inhibition (INH)” value in test [1] is given as 6.92%. Also, in test [2], the Activity is recorded as 3.8 uL/ml.

`C/C(=N\N/C(N)=N/C=N/C#N)c1ccc(Cl)cc1`: the “inhibition (INH)” value in test [1] is 37.18%. In test [2], the Activity worked out at 3.4 uL/ml.

Take `COc1ccc(/C=N/N/C(N)=N/C=N/C#N)cc1`: in test [1], the “inhibition (INH)” value worked out at 28.77%. The Activity in test [2] was determined as 3 uL/ml.

Turning to `N#C/N=C/N=C(\N)N/N=C/c1ccc(Cl)cc1F`, the “inhibition (INH)” value in test [1] is on record as 41.65%. Also, the Activity in test [2] worked out at 3 uL/ml.

Consider `N#C/N=C/N=C(\N)N/N=C/c1ccc(Cl)cc1`, for which, in test [1], the “inhibition (INH)” value is 29.21%. For the same compound, in test [2], the Activity is on record as 3.1 uL/ml.

As for `O=C1C2=C(CCCC2)C(=O)N1c1ccc(Cl)cc1` [CHLOROPHTHALIUM], the “inhibition (INH)” value in test [1] is on record as 2.34%. Further, in test [2], the Activity worked out at 2.5 uL/ml.

For the compound `CCOc1cc(Oc2ccc(C(F)(F)F)cc2Cl)ccc1[N+](=O)[O-]` [OXYFLUORFEN], in test [1], the “inhibition (INH)” value is 2.24%. For the same compound, the Activity in test [2] turned out to be 1.4 uL/ml.
